Reference: PubChem BioAssay AID977621 (Broad Institute, 2014)
Results filed as inconclusive are left out. The source made the active and inactive calls.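 Rule for the calls: active = Wild-type ribosome reporter drop at least double the humanized mutant ribosome reporter drop, growth loss under a set limit; inconclusive = no clear call, values can overlap the other calls; inactive = the rest.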

Tested on: E. coli wild-type GFP strain growth, fluorescence, 24 h
Assay: wild-type E. coli growth inhibition versus H69 humanized strain – H69 mutant RFP, wild-type GFP, cherry-pick, dose response (AID 977621);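 note: wild-type GFP and H69 mutant RFP strains grown together 50/50 in each well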
[1] = E. coli mixed culture, 24 h, measured here: total growth OD600, test 2

Row | Compound | AC50 | AC50 [1]
1 | CSc1nc(SC(C)C(=O)O)c2c3c(sc2n1)COC(C)(C)C3 (stereo not drawn) | > 100 µM (inactive) | –
2 | COc1cccc(OC)c1OCCCOc1cccc2cccnc12 | > 100 µM (inactive) | –
3 | COc1cccc(C(=O)NC(C)c2ccc(Br)cc2)c1 (stereo not drawn) | – | > 100 µM
4 | O=C(CSCc1c(Cl)cccc1Cl)NCc1ccccn1 | – | > 100 µM
5 | CCn1nc(Cc2cccc3ccccc23)c(C#N)c1N | > 100 µM (inactive) | –
6 | CCOC(=O)c1cnc2c(cnn2C)c1NCc1ccc(OC)cc1 | > 100 µM (inactive) | > 100 µM
7 | O=C(NCc1ccco1)c1ccc2ccccc2n1 | – | > 100 µM
8 | O=c1[nH]c(C2CCN(S(=O)(=O)c3ccc4c(c3)OCCO4)CC2)nc2c1nnn2Cc1ccccc1F | > 100 µM (inactive) | –
9 | CNC(=O)c1sc(-c2ccccn2)nc1C | – | > 100 µM
10 | CCC(=O)Nc1sc(Cc2ccc3c(c2)OCO3)c(C)c1C(N)=O | > 100 µM (inactive) | 51.4 µM
11 | Cc1cc(OCCCCOc2ccc(S(N)(=O)=O)c(C)c2)ccc1S(N)(=O)=O | > 100 µM (inactive) | 49.4 µM
12 | Cc1cccc(CN2C(=O)c3ccccc3Sc3ccc(C(=O)O)cc32)c1 | > 100 µM (inactive) | –
13 | COc1cccc(NC(=O)C2CCC(CNS(=O)(=O)c3cccc4cccnc34)CC2)c1 (stereo not drawn) | > 100 µM (inactive) | –
14 | O=C(Cc1cccc(NC(=O)C2CCN(C(=O)C3CCCCC3)CC2)c1)Nc1cccc(C(=O)N2CCCC2)c1 | – | > 100 µM
15 | CCCn1c(C(C)Nc2nc(-c3ccc(C)cc3)cs2)nc2ccccc21 (stereo not drawn) | – | > 100 µM
16 | COc1ccc(-c2noc(=O)n2Cc2ccccc2Cl)cc1 | > 100 µM (inactive) | –
17 | O=C(Cc1cccc2ccccc12)Nc1ccccc1C(=O)O | – | 50.2 µM
18 | CC(C)Nc1nnc(SCC(=O)Nc2sccc2C#N)s1 | > 100 µM (inactive) | –
19 | Cc1ccc(NC(=O)C[n+]2cc(-c3ccccc3)n3c2CCC3)cc1 | – | > 100 µM
20 | CCn1ncc(Br)c1C(=O)Nc1ccc2c(c1)OCCO2 | > 100 µM (inactive) | –
21 | O=S(=O)(c1ccc(F)cc1)N1C[C@@H]2N[C@H](C1)C2c1ccc(/C=C/c2ccccc2)cc1 (stereo partly drawn) | – | 41.3 µM
22 | Clc1ccccc1C1CC(c2ccccc2)=Nc2ccccc2N1 (stereo not drawn) | > 100 µM (inactive) | –
23 | COc1ccccc1N(C)S(=O)(=O)c1ccc(C(=O)NC(C)c2ccccc2)cc1 (stereo not drawn) | > 100 µM (inactive) | –
24 | Cc1ccccc1-c1cc(C(=O)NCc2cccs2)n(CC2CC(c3cccnc3)=NO2)n1 (stereo not drawn) | > 100 µM (inactive) | > 100 µM

Row | Compound | AC50 | AC50 [1]
25 | CCOC(=O)c1c(CS(=O)(=O)c2ccccc2)n(C)c2cc(Br)c(O)cc12 | > 100 µM (inactive) | > 100 µM
26 | CCOc1ccc2nc(NC(=O)CSc3nc(SC)ns3)sc2c1 | – | > 100 µM
27 | CSc1nc2ccc(NC(=O)c3c(-c4ccccc4)noc3C)cc2s1 | – | 46.5 µM
28 | Cc1sc2ncn(CC(=O)Nc3ccccc3F)c(=O)c2c1-c1ccccc1 | > 100 µM (inactive) | –
29 | CC(=O)c1cccc(NC(=O)COC(=O)C2CCCN2C(=O)c2cccs2)c1 (stereo not drawn) | > 100 µM (inactive) | –
30 | N#Cc1ccsc1NC(=O)CSc1nnnn1-c1ccc(O)cc1 | > 100 µM (inactive) | –
31 | Cc1ccccc1OCC(O)Cn1c(NCc2ccco2)nc2c1c(=O)n(C)c(=O)n2C (stereo not drawn) | > 100 µM (inactive) | > 100 µM
32 | O=C(Nc1ccc(S(=O)(=O)N2CCCC2)cc1)c1ccc(OCC2CCCO2)cc1 (stereo not drawn) | > 100 µM (inactive) | –
33 | C=C1SC(Nc2c(C)cc(C)cc2C)=NC12CCCCC2 | > 100 µM (inactive) | 31.9 µM
34 | O=C(NCc1ccc(-c2nc3ccccc3s2)cc1)c1ccco1 | > 100 µM (inactive) | –
35 | O=S(=O)(c1ccccc1)N1CCN=C1SCc1cccc(Cl)c1 | > 100 µM (inactive) | 35.9 µM
36 | CCCCc1ccc(S(=O)(=O)Nc2ccc(C)c(NS(C)(=O)=O)c2)cc1 | – | 49.5 µM
37 | O=C(c1ccc(N2CCCCC2)c([N+](=O)[O-])c1)N1CCN(c2ccccn2)CC1 | > 100 µM (inactive) | > 100 µM
38 | Nc1ccccc1Sc1c[nH]c2ccccc12 | – | > 100 µM
39 | CCN(C(=O)COC(=O)c1cn(-c2ccccc2)nc1-c1ccccc1)C1CCS(=O)(=O)C1 (stereo not drawn) | – | > 100 µM
40 | CCSc1nc2ccccc2c(=O)n1Cc1ccc(F)cc1 | > 100 µM (inactive) | 49.4 µM
41 | O=C(COn1nnc2ccc(C(F)(F)F)cc21)Nc1c(Cl)cccc1Cl | > 100 µM (inactive) | –
42 | COc1ccc(NS(=O)(=O)c2cccc3ccccc23)cc1 | – | 33.7 µM
43 | COc1ccc(CC(=O)Oc2ccc(C)cc2C)cc1 | – | > 100 µM
44 | CCC(C(=O)NC1CCCC1)n1c(-c2ccnc3ccccc23)nc2ccccc21 (stereo not drawn) | – | > 100 µM
45 | Cc1ccc(S(=O)(=O)NC(C)C(=O)NCc2ccc(Cl)cc2)cc1 (stereo not drawn) | > 100 µM (inactive) | > 100 µM
46 | O=C(C[C@@H]1CC[C@@H]2[C@H](COC[C@H](O)CN2C(=O)Nc2ccc(Cl)cc2)O1)N1CCCCC1 | > 100 µM (inactive) | 46 µM
47 | CC(C)CN1C(=O)c2ccc(C(=O)Nc3ccncc3)cc2C1=O | > 100 µM (inactive) | > 100 µM
48 | COc1cccc(NC(=O)CN(C)CC(=O)Nc2ccc(Br)cc2)c1 | > 100 µM (inactive) | –

Row | Compound | AC50 | AC50 [1]
49 | CCOC(=O)Cc1csc(SCC(=O)Nc2cc(C)ccc2OC)n1 | > 100 µM (inactive) | > 100 µM
50 | COc1cccc(OC)c1CNC(=O)CCSCc1ccccc1F | – | > 100 µM
51 | O=C(Nc1ccc2c(c1)OCO2)c1ccc([N+](=O)[O-])cc1[N+](=O)[O-] | > 100 µM (inactive) | –
52 | CCOc1ccccc1N1CC(C(=O)Nc2cccc(S(=O)(=O)N3CCCCC3)c2)CC1=O (stereo not drawn) | – | > 100 µM
53 | N#Cc1ccc(OCC(=O)N2CCN(S(=O)(=O)c3ccc(Cl)s3)CC2)cc1 | > 100 µM (inactive) | –
54 | COc1ccc(NC(=O)c2oc3ccccc3c2NC(=O)C2CCCO2)cc1OC (stereo not drawn) | > 100 µM (inactive) | –
55 | Cc1cc(Br)ccc1SCC(=O)OCC(=O)NCc1ccco1 | > 100 µM (inactive) | –
56 | Cc1cc(C(=O)OCC(=O)Nc2cccc(S(N)(=O)=O)c2)c2ccccc2n1 | – | > 100 µM
57 | CC(C)(C)c1ccc(S(=O)(=O)NCc2ccc(C(=O)NCc3ccccn3)cc2)cc1 | – | > 100 µM
58 | COc1ccc(Cn2c(=O)c3[nH]cnc3n(-c3ccc(C)cc3)c2=O)cc1 | > 100 µM (inactive) | –
59 | Cc1ccc(C)c(N(CC(=O)NC2CCCC2)C(=O)c2oc(C(C)(C)C)cc2C)c1 | > 100 µM (inactive) | > 100 µM
60 | CSC1=NCCN1C(=O)Cc1ccc(-c2ccccc2)cc1 | > 100 µM (inactive) | 48.3 µM
61 | CCn1nnc(NC(=O)c2ccc([N+](=O)[O-])o2)n1 | > 100 µM (inactive) | –
62 | O=C(NCCCCc1ccccc1)c1cccc(NC(=O)C2CCCCC2)c1 | > 100 µM (inactive) | 46.8 µM
63 | CCOc1ccc2[nH]c3c(NCCN(C)C)ncnc3c2c1 | – | > 100 µM
64 | COc1ccc(-c2nnn(CC(=O)N3CCN(c4ccccc4OC)CC3)n2)cc1OC | > 100 µM (inactive) | –
65 | COc1cccc(NS(=O)(=O)c2ccc(-c3coc(C)n3)cc2)c1 | > 100 µM (inactive) | 3.29 µM
66 | CC1(C(=O)Nc2ccc3c(c2)OCCO3)CSCC(=O)N1CCOc1ccccc1 (stereo not drawn) | > 100 µM (inactive) | > 100 µM
67 | CC(NC(=O)C12CC3CC(C)(CC(C)(C3)C1)C2)c1ccncc1 (stereo not drawn) | – | > 100 µM
68 | C=CCn1c(C)cc(C(=O)COC(=O)CNC(=O)c2ccccc2)c1C | – | 44 µM
69 | Cc1cccc(-c2ccc([C@H]3[C@@H](CO)N4CCCCN(S(=O)(=O)c5ccccc5C)C[C@H]34)cc2)c1 | – | 27.2 µM
70 | Cc1nc(-c2ccc([N+](=O)[O-])cc2)c(-c2ccccc2)o1 | > 100 µM (inactive) | –
71 | COc1cccc(OCCNS(=O)(=O)c2ccccc2[N+](=O)[O-])c1 | > 100 µM (inactive) | –
72 | O=C(c1ccccc1)c1ccc2nc(-c3ccc(NC(=O)c4ccccc4Br)cc3)[nH]c2c1 | > 100 µM (inactive) | > 100 µM

Row | Compound | AC50 | AC50 [1]
73 | c1ccc(Cc2nc3ccccc3s2)cc1 | > 100 µM (inactive) | > 100 µM
74 | O=C(c1cc2cc(F)ccc2[nH]1)N1CCN(Cc2ccc3c(c2)OCO3)CC1 | > 100 µM (inactive) | 24.5 µM
75 | CCc1ccc2nc(N(CCCN(C)C)C(=O)c3ccc4c(c3)OCCO4)sc2c1 | > 100 µM (inactive) | –
76 | COc1cc(C2CC(=O)Oc3cc(C)cc(C)c32)cc(OC)c1OC (stereo not drawn) | > 100 µM (inactive) | –
77 | COc1ccc(OC)c(CN2CCCC(C(=O)c3ccccc3SC)C2)c1 (stereo not drawn) | > 100 µM (inactive) | –
78 | O=C(CCCOc1ccc(Cl)cc1Cl)Nc1ccccc1C(=O)O | – | 33.7 µM
79 | Cc1cc(-c2ccc(C)c(S(=O)(=O)NC(C)Cc3ccco3)c2)on1 (stereo not drawn) | > 100 µM (inactive) | 31 µM
80 | COC(=O)c1ccc(CN2CCCC(CO)(Cc3ccccc3F)C2)cc1 (stereo not drawn) | > 100 µM (inactive) | –
81 | C=CCn1c(C)cc(C(=O)CSc2nnc(C3CC3)n2C2CC2)c1C | – | > 100 µM
82 | O=C(Nc1ccccc1)N1CCCCN2[C@@H](CO)[C@H](c3ccc(Br)cc3)[C@@H]2C1 | > 100 µM (inactive) | –
83 | CC(=O)Nc1cccc(NC(=O)CSc2ccc(-c3cccnc3)nn2)c1 | > 100 µM (inactive) | 48.7 µM
84 | CN1C(=O)c2ccccc2OC1(C)Cc1ccccc1 (stereo not drawn) | > 100 µM (inactive) | 41.6 µM
85 | Nc1nc(SCc2ccccc2)c2ncn(Cc3ccccc3)c2n1 | > 100 µM (inactive) | 41.2 µM
86 | COCc1cc(C)nc(SCC[N+](C)(C)CC(=O)c2ccc(Br)cc2)c1C#N | > 100 µM (inactive) | –
87 | O=[N+]([O-])c1cncc([N+](=O)[O-])c1Nc1cccc(O)c1 | > 100 µM (inactive) | –
88 | O=S1(=O)c2ccc(Br)cc2OCCC2CCCCN21 (stereo not drawn) | > 100 µM (inactive) | > 100 µM
89 | O=C(O)c1ccc(COc2ccc3ccccc3c2)o1 | > 100 µM (inactive) | > 100 µM
90 | CS(=O)(=O)c1cccc(C(=O)Nc2cccc(-c3nc4ccccc4[nH]3)c2)c1 | > 100 µM (inactive) | –
91 | O=C(O)c1ccc(S(=O)(=O)N(Cc2ccc(F)cc2)C2CCCCC2)cc1 | > 100 µM (inactive) | 30.2 µM
92 | CCOc1ncccc1C(=O)OCC(=O)NCCCc1ccccc1 | – | > 100 µM
93 | CCC(=O)Nc1nc2c(OC)ccc(OC)c2s1 | – | > 100 µM
94 | CC(NCc1ccc(S(N)(=O)=O)cc1)C(=O)Nc1cc([N+](=O)[O-])ccc1Cl (stereo not drawn) | > 100 µM (inactive) | –
